Test results reported in US5141960A, “Tricyclic glycinamide derivatives as anti-convulsants” (G. D. Searle & Co., priority 1991, dated 1992).
pIC50: −log10 of the molar value.

Experiments:
[1] = test system: convulsions and death induced by 3-mercaptopropionic acid; assay: 3-Mercaptopropionic acid (3-MPA) induced convulsions; format: in vivo, male Swiss albino mice (CD1); details: for 3-MPA score: total number of mice protected for two groups of 5 animals, 30 min: 30 min before convulsions induced; for activity as inhibitors of tonic convulsions: overall, 3-MPA induced, oral, mice
Description: (§1) Treatment of a mammal afflicted by or susceptible to certain CNS disorders is accomplished by administration of a therapeutically-effective amount of a compound of Formula I. In particular, compounds 1-3 of Table 1 were evaluated by in vitro and in vivo animal model assays to determine the pharmacological properties of such compounds and their suitability for use as therapeutic drugs in humans. These biological assays, as described below, consisted of prevention of induced convulsions in mice, a TCP binding study in rat brain, determination of acute toxicity in mice and an animal behavior assay. Except as otherwise specified, the animals used in the in vivo test were male Swiss albino mice of weight 22 to 33 g [CD1, Charles River, France], housed in groups of 10 on a 12-hour dark-light cycle for at least one week and fasted overnight prior to testing.
Compounds of Formula I were examined as inhibitors of convulsions and death induced by the convulsant agent 3-mercaptopropionic acid (3-MPA, 120 mg/kg subcutaneously) [W. van Dorsser, D. Barris, A. Cordi and J. Roba, Arch. Int. Pharmacodyn., 266, 239-249 (1983)]. The compounds of the invention were administered orally at a dosage of either 100 mg/kg or 30 mg/kg in a volume of 10 ml/kg each to 5 mice, at intervals of 30 minutes or 2 hours before convulsions were induced. The number of mice protected against tonic convulsions and the number of dead mice were noted. Results are given in Table II as a score which represents the total number of mice protected for two groups of 5 animals (3-MPA).

[2] = parameters: species or system mice; details: mouse, in vivo
Description: as §1
Behavioral effect of compounds of the invention on animals were determined by observations taken at 5 to 6 hours and at 24 hours after administration of compounds of the invention. Determinations were made based on a method derived from that of S. Irwin [See R. A. Turner, Screening Methods in Pharmacology, Chapter 3, pages 22-34, Academic Press, N.Y. (1965)]. If an anomaly were noted, the observation was extended and smaller doses were tested. […]

[3] = Acute toxicity (LD50, oral); parameters: species or system male mice; details: mouse, in vivo, mice, mortality over 15 days
Description: as §1
The acute toxicity was determined after oral administration of the test compound to mice. […] Doses used in the test were determined by observing toxic effects on the mice, which doses varied from 3,000 mg/kg down to about 3 mg/kg. The mortality was recorded over a period of 15 days. The LD50 result in Table II was calculated according to published methods [Lichtfield and Wilcoxon, J. Pharmacol. Exp. Ther., 96, 99 (1949)] and is expressed in mg of test compound per kilogram of mouse body weight.

[4] = target: TCP (1-[1-(2-thienyl)cyclohexyl]piperidine) binding in rat brain synaptic membranes (SPM); assay: TCP binding study; details: 2 nM tritiated TCP, pH 7.4, 25° C., 60 min
Description: The effect of compounds of Formula I on TCP (1-[1-(2-thienyl)cyclohexyl]piperidine) binding was measured in rat brain synaptic membranes (SPM) prepared by known methods [J. B. Monahan & J. Michel; J. Neurochem., 48, 1699-1708 (1987)]. Prior to their use in the binding assay, frozen SPM were thawed, then diluted twenty fold with 50 mM Tris/acetate [pH 7.4, containing 0.04% (v/v) Triton X-100], incubated for 30 min. at 37° C. and centrifuged at 95,000 xg for 15 min. The Triton X-100 treated SPM were washed with 5 mM Tris/HCl (pH 7.4) and centrifuged a total of six times. Compound of the invention was incubated at differing concentrations with SPM (0.2-0.4 mg protein) and 2 nM tritiated TCP, in a total volume of 0.5 ml of 5 mM Tris/HCl buffer (pH 7.4) at 25° C. for 60 min. The samples were filtered through glass fiber filters (Schleicher & Schuell #32) which had been pretreated with 0.05% (v/v) polyethyleneimine, washed with 2 ml of ice-cold 5 mM Tris/HCl buffer, and then counted on a Beckman LS 5800 liquid scintillation counter with automatic corrections for quenching and counting efficiency. Inhibition of TCP binding was measured as a decrease in basal binding. […] TCP binding inhibition values (IC50) were calculated using logit-log analysis and calculations and regression analysis were performed using templates developed for Lotus 123 by known methods [L. M. Pullan, Computer Appli. […]

[5] = compound orally at 100 mg/kg or 30 mg/kg, 3-MPA 120 mg/kg s.c.

Row | SMILES | 3-MPA score: total number of mice protected for two groups of 5 animals, 30 min [1, 5] | activity as inhibitors of tonic convulsions [1] | Behavior: convulsions (CON), dose at which the behavior is observed [2] [mg/kg] | LD50 at 360 h [3] [mg/kg] | 3-MPA score: total number of mice protected for two groups of 5 animals, 2 hrs ([1]; compound orally at 100 mg/kg or 30 mg/kg, 2 hours before convulsions induced, 3-MPA 120 mg/kg s.c.) | Behavior: sedation (SED), dose at which the behavior is observed [2] [mg/kg] | pIC50 [4]
1 | NC(=O)CNC1c2ccccc2CSc2ccccc21 (stereo not shown) [Compound 3, 2-(2,3-6,7-dibenzo-4-thiacycloheptanylamino)acetamide] | 10 | very good activity | – | – | – | – | –
2 | NC(=O)CNC1c2ccccc2C=Cc2ccccc21 [Compound 2, 2-(2,3-6,7-dibenzocyclohept-4-enylamino)acetamide] | 3 | – | 1000 | – | – | – | –
3 | NC(=O)CNC1c2ccccc2CCc2ccccc21 [Compound 1, 2-(2,3-6,7-dibenzocycloheptanylamino)acetamide] | 10 | very good activity | – | 780 | 10 | 300 | 4.42
